Data as given in US20130157954A1, “METHODS FOR TREATMENT OR PROPHYLAXIS OF KIDNEY OR LIVER DYSFUNCTION” (NPS PHARMACEUTICALS, INC., priority 2010, published 2013).

Test: Example 2: liver biomarkers (albumin, gamma glutamyl transferase, total bilirubin, ALT, AST, ALP) in short bowel syndrome patients, every four weeks for 24 weeks; also sorted by >10% change from baseline
Type: in vivo, Human
Conditions: 0.05 mg/kg/d; for Alkaline Phosphatase: subjects Within 10% of Baseline / Alkaline Phosphatase: subjects with >10% decrease from Baseline / Alkaline Phosphatase: subjects with >10% increase from Baseline / Bilirubin: subjects Within 10% of Baseline / Bilirubin: subjects with >10% decrease from Baseline / Bilirubin: subjects with >10% increase from Baseline / ALT: subjects Within 10% of Baseline / ALT: subjects with >10% decrease from Baseline / ALT: subjects with >10% increase from Baseline / AST: subjects Within 10% of Baseline / AST: subjects with >10% decrease from Baseline / AST: subjects with >10% increase from Baseline / Albumin: subjects Within 10% of Baseline / Albumin: subjects with >10% decrease from Baseline / Albumin: subjects with >10% increase from Baseline: m = 38
Description: To further confirm the results of Example 1, a further study was conducted involving more individuals and additional diagnostic biomarkers. Human patients with short bowel syndrome were divided into two groups: a control group (43 total individuals) to receive placebo, and an experimental group (42 total individuals) to receive teduglutide at 0.05 mg/kg/day throughout the study. Patients were treated by subcutaneous injection of placebo or the appropriate dose of teduglutide. Known biomarkers of liver function were monitored every four weeks, for 24 weeks. The liver biomarkers tested included albumin, gamma glutamyl transferase, total bilirubin, ALT and AST and ALP. Before administration of placebo or teduglutide, diagnostic biomarker levels were tested to establish a baseline for each individual.
To determine the effect of GLP-2 on the levels of the diagnostic biomarkers, the average level of each biomarker was measured for the placebo and teduglutide treated groups for each visit. Furthermore, the average change from baseline was calculated using the established baseline values. For FIGS. 17-28, p-values were calculated using the t-test.
P values are provided, which were calculated for each distribution of biomarker changes for each week using the chi-squared test.

CC[C@H](C)[C@H](NC(=O)[C@H](Cc1ccccc1)NC(=O)[C@H](CC(=O)O)NC(=O)[C@H](CCCNC(=N)N)NC(=O)[C@H](C)NC(=O)[C@H](C)NC(=O)[C@H](CC(C)C)NC(=O)[C@H](CC(N)=O)NC(=O)[C@H](CC(=O)O)NC(=O)[C@H](CC(C)C)NC(=O)[C@@H](NC(=O)[C@@H](NC(=O)[C@H](CC(N)=O)NC(=O)[C@H](CCSC)NC(=O)[C@H](CCC(=O)O)NC(=O)[C@H](CC(=O)O)NC(=O)[C@H](CO)NC(=O)[C@H](Cc1ccccc1)NC(=O)[C@H](CO)NC(=O)CNC(=O)[C@H](CC(=O)O)NC(=O)CNC(=O)[C@@H](N)Cc1c[nH]cn1)[C@@H](C)O)[C@@H](C)CC)C(=O)N[C@@H](CC(N)=O)C(=O)N[C@@H](Cc1c[nH]c2ccccc12)C(=O)N[C@@H](CC(C)C)C(=O)N[C@H](C(=O)N[C@@H](CCC(N)=O)C(=O)N[C@H](C(=O)N[C@@H](CCCCN)C(=O)N[C@H](C(=O)N[C@H](C(=O)N[C@@H](CC(=O)O)C(=O)O)[C@@H](C)O)[C@@H](C)CC)[C@@H](C)O)[C@@H](C)CC [teduglutide]
Alkaline Phosphatase: subjects Within 10% of Baseline (Week 16): 7 (18.4%) n (%) | Alkaline Phosphatase: subjects with >10% decrease from Baseline (Week 16): 23 (60.5%) n (%) | Alkaline Phosphatase: subjects with >10% increase from Baseline (Week 16): 8 (21.1%) n (%) | Bilirubin: subjects Within 10% of Baseline (Week 16): 5 (13.2%) n (%) | Bilirubin: subjects with >10% decrease from Baseline (Week 16): 24 (63.2%) n (%) | Bilirubin: subjects with >10% increase from Baseline (Week 16): 9 (23.7%) n (%) | ALT Change from Baseline, Max (Week 20): 24 U/L | ALT Change from Baseline, Median (Week 20): −6.5 U/L | ALT Change from Baseline, Min (Week 20): −55 U/L | ALT Observed Value, Max (Week 20): 149 U/L | ALT Observed Value, Min (Week 20): 5 U/L | AST Change from Baseline, Max (Week 20): 10 U/L | AST Change from Baseline, Mean (Week 20): −4.2 U/L | AST Change from Baseline, Median (Week 20): −2.5 U/L | AST Change from Baseline, Min (Week 20): −38 U/L | AST Observed Value, Max (Week 20): 77 U/L | AST Observed Value, Min (Week 20): 10 U/L | Albumin Change from Baseline, Max (Week 20): 4 g/L | Albumin Change from Baseline, Mean (Week 20): -0.6 g/L | Albumin Change from Baseline, Median (Week 20): -1 g/L | Albumin Change from Baseline, Min (Week 20): -8 g/L | Albumin Observed Value, Max (Week 20): 49 g/L | Albumin Observed Value, Median (Week 20): 43 g/L | Albumin Observed Value, Min (Week 20): 33 g/L | Alkaline Phosphatase Change from Baseline, Max (Week 20): 77 U/L | Alkaline Phosphatase Change from Baseline, Min (Week 20): −117 U/L | Alkaline Phosphatase Observed Value, Max (Week 20): 303 U/L | Alkaline Phosphatase Observed Value, Min (Week 20): 54 U/L | Bilirubin Change from Baseline, Max (Week 20): 2.8 µmol/L | Bilirubin Change from Baseline, Median (Week 20): -1.7 µmol/L | Bilirubin Change from Baseline, Min (Week 20): -25.5 µmol/L | Bilirubin Observed Value, Max (Week 20): 31.9 µmol/L | Bilirubin Observed Value, Min (Week 20): 3.7 µmol/L | Gamma Glutamyl Transferase Change from Baseline, Max (Week 20): 57 U/L | Gamma Glutamyl Transferase Change from Baseline, Mean (Week 20): −9.6 U/L | Gamma Glutamyl Transferase Change from Baseline, Median (Week 20): −8 U/L | Gamma Glutamyl Transferase Change from Baseline, Min (Week 20): −146 U/L | Gamma Glutamyl Transferase Observed Value, Max (Week 20): 261 U/L | Gamma Glutamyl Transferase Observed Value, Min (Week 20): 8 U/L | ALT: subjects Within 10% of Baseline (Week 20): 10 (26.3%) n (%) | ALT: subjects with >10% decrease from Baseline (Week 20): 23 (60.5%) n (%) | ALT: subjects with >10% increase from Baseline (Week 20): 5 (13.2%) n (%) | AST: subjects Within 10% of Baseline (Week 20): 11 (28.9%) n (%) | AST: subjects with >10% decrease from Baseline (Week 20): 20 (52.6%) n (%) | AST: subjects with >10% increase from Baseline (Week 20): 7 (18.4%) n (%) | Albumin: subjects Within 10% of Baseline (Week 20): 37 (97.4%) n (%) | Albumin: subjects with >10% decrease from Baseline (Week 20): 1 (2.6%) n (%) | Albumin: subjects with >10% increase from Baseline (Week 20): 0 n (%) | Alkaline Phosphatase: subjects Within 10% of Baseline (Week 20): 12 (31.6%) n (%) | Alkaline Phosphatase: subjects with >10% decrease from Baseline (Week 20): 23 (60.5%) n (%) | Alkaline Phosphatase: subjects with >10% increase from Baseline (Week 20): 3 (7.9%) n (%) | Bilirubin: subjects Within 10% of Baseline (Week 20): 5 (13.2%) n (%) | Bilirubin: subjects with >10% decrease from Baseline (Week 20): 25 (65.8%) n (%) | Bilirubin: subjects with >10% increase from Baseline (Week 20): 8 (21.1%) n (%) | ALT Change from Baseline, Max (Week 24): 21 U/L | ALT Change from Baseline, Median (Week 24): −7.5 U/L | ALT Change from Baseline, Min (Week 24): −60 U/L | ALT Observed Value, Max (Week 24): 91 U/L | ALT Observed Value, Min (Week 24): 7 U/L | AST Change from Baseline, Max (Week 24): 14 U/L | AST Change from Baseline, Mean (Week 24): −5.8 U/L | AST Change from Baseline, Median (Week 24): −5 U/L | AST Change from Baseline, Min (Week 24): −47 U/L | AST Observed Value, Max (Week 24): 73 U/L | AST Observed Value, Median (Week 24): 23 U/L | AST Observed Value, Min (Week 24): 11 U/L | Albumin Change from Baseline, Max (Week 24): 3 g/L | Albumin Change from Baseline, Mean (Week 24): -0.4 g/L | Albumin Change from Baseline, Median (Week 24): 0 g/L | Albumin Change from Baseline, Min (Week 24): -8 g/L | Albumin Observed Value, Max (Week 24): 48 g/L | Albumin Observed Value, Median (Week 24): 42 g/L | Albumin Observed Value, Min (Week 24): 33 g/L | Alkaline Phosphatase Change from Baseline, Max (Week 24): 33 U/L | Alkaline Phosphatase Change from Baseline, Min (Week 24): −122 U/L | Alkaline Phosphatase Observed Value, Max (Week 24): 328 U/L | Alkaline Phosphatase Observed Value, Median (Week 24): 88 U/L | Alkaline Phosphatase Observed Value, Min (Week 24): 49 U/L | Bilirubin Change from Baseline, Max (Week 24): 3.3 µmol/L | Bilirubin Change from Baseline, Min (Week 24): -26.1 µmol/L | Bilirubin Observed Value, Max (Week 24): 31.3 µmol/L | Bilirubin Observed Value, Median (Week 24): 6.8 µmol/L | Bilirubin Observed Value, Min (Week 24): 2.5 µmol/L | Gamma Glutamyl Transferase Change from Baseline, Max (Week 24): 46 U/L | Gamma Glutamyl Transferase Change from Baseline, Median (Week 24): −6 U/L | Gamma Glutamyl Transferase Change from Baseline, Min (Week 24): −144 U/L | Gamma Glutamyl Transferase Observed Value, Max (Week 24): 228 U/L | Gamma Glutamyl Transferase Observed Value, Min (Week 24): 7 U/L | ALT: subjects Within 10% of Baseline (Week 24): 10 (26.3%) n (%) | ALT: subjects with >10% decrease from Baseline (Week 24): 24 (63.2%) n (%) | ALT: subjects with >10% increase from Baseline (Week 24): 4 (10.5%) n (%) | AST: subjects Within 10% of Baseline (Week 24): 8 (21.1%) n (%) | AST: subjects with >10% decrease from Baseline (Week 24): 24 (63.2%) n (%) | AST: subjects with >10% increase from Baseline (Week 24): 6 (15.8%) n (%) | Albumin: subjects Within 10% of Baseline (Week 24): 36 (94.7%) n (%) | Albumin: subjects with >10% decrease from Baseline (Week 24): 2 (5.3%) n (%) | Albumin: subjects with >10% increase from Baseline (Week 24): 0 n (%) | Alkaline Phosphatase: subjects Within 10% of Baseline (Week 24): 9 (23.7%) n (%) | Alkaline Phosphatase: subjects with >10% decrease from Baseline (Week 24): 23 (60.5%) n (%) | Alkaline Phosphatase: subjects with >10% increase from Baseline (Week 24): 6 (15.8%) n (%) | Bilirubin: subjects Within 10% of Baseline (Week 24): 6 (15.8%) n (%) | Bilirubin: subjects with >10% decrease from Baseline (Week 24): 26 (68.4%) n (%) | Bilirubin: subjects with >10% increase from Baseline (Week 24): 6 (15.8%) n (%)
